Like-named read-outs stand apart in the source and are kept apart here.
Experiments:
human cell lines = experiment: Cytotoxicity under continuous drug exposure, mean over human cell lines; assay type: cell-based; details: read-out: mean IC50 value for human cell lines
Protocol: The latter value compared with 2 µM for the 4-pyridyl-quinoline analogue, 0.76 µM for amsacrine, 0.1 µM for the amsacrine analogue 4'-(9-[4-[N-methylcarboxamido]-5-methyl]-acridinylamino)-methanesulphon-m-anisidide ("CI-921") and 81 µM for etoposide.

[1] = test system: advanced colon 38 tumours; experiment: Tumour growth delay, advanced subcutaneous colon 38 tumours in mice; assay type: in vivo
Protocol: Colon 38 carcinoma was obtained from the Mason Research Institute (Worchester, MA, USA) and was grown in BDF1 hosts. Tumour fragments (1 mm^3) were implanted subcutaneously in anaesthetised mice. Tumours had grown to the appropriate size 9 days after implantation. A melanoma tumour line (WADH) was developed in the Cancer Research Laboratory. Tumour cells were grown in culture and 1 x 10^6 cells were implanted intradermally into the flank of nude (C57BI/J genetic background) mice. Mice were grown under sterile surroundings until tumours were of appropriate size.
Tumours were measured 3x (colon 38) or 2x (xeno-graft) weekly with callipers and tumour volumes calculated as 0.52a^2b, where a and b were the minor and major tumour axes. Tumour growth delays were measured at a time when tumour volumes of treated and control animals had increased by 4-fold.
The effects of five compounds, • (i) DACA • (ii) N-[2-(dimethylamino)ethyl]-9-methoxyphen-azine-1-carboxamide (compound 28 of J. Med. Chem., 1987, 30, 843-851), • (iii) N-[2-(dimethylamino) ethyl]-2-phenylquino-line-8-carboxamide (compound 6 of J. Med. Chem. 1988, 31, 1048-1052), • (iv) N-[2-(dimethylamino)ethyl]-2-(4-pyridyl)-guinoline-8-carboxamide (compound 18 of J. Med. Chem., 1989, 32, 396-401), and • (v) N-[2-(dimethylamino)ethyl]-9-bromo-dibenzo-[1,4]-dioxin-1-carboxamide (compound 20 of J. Med. Chem. 1992, 35, 258-266) on the growth of advanced colon 38 tumours in mice was investigated by implanting tumour fragments subcutaneously and allowing them to grow until they had reached a diameter of 5-8 mm.

B1A = experiment: Resistance factor, drug-resistant Jurkat leukaemia subline; assay type: cell-based, human
Protocol: (§1) Tumour cell lines were cultured in 96-well plates. Growth of NCI cell lines was assessed using sulpho-rhodamine B staining (Skehan P., et al., J. Natl. Cancer Inst. 1990, 82, 1107-1112), that of the leukaemia lines with (4,5-dimethylthiazole-2-yl)-2,5-diphenyltetrazolium (MTT) staining (Mosmann T., J. Immun. Methods 1983, 65, 55-63) and that of the primary human tumour material by ^3H-thymidine incorporation (Marshall E.S., et al., J. Natl. Cancer Inst. 1992, 84, 341-344). Primary tumour material was cultured in 96-well plates in which the wells were coated with agarose to inhibit selectively the growth of normal cells. (Marshall E.S., et al., J. Natl. Cancer Inst. 1992, 84, 341-344). Primary cultures were incubated at 37°C in sealed perspex boxes containing a humidified atmosphere of 5% CO2 and 5% O2 in nitrogen for 7 days. 5-Methyl-[^3H]-thymidine (20 Ci.mmol^-1; 0.04 µCi per well), thymidine and 5-fluorodeoxyuridine (each at final concentrations of 0.5 µM) were added in medium to cultures (20 µl per well) 24 h before terminating the cultures. Cells were aspirated on to glass fibre filters using a multiple automated sample harvester (LKB Wallac OY Beta Harvester). The filter discs were washed for 15 seconds with water, dried, and the amount of tritium retained quantified by liquid scintillation.
(§2) IC50 values were defined as in Paull K.D., et al., J. Natl. Cancer Inst. 1989, 81:1088-1092, where growth, as indicated by staining or thymidine incorporation, corresponded to 50% of that of the control cultures. […] Variances of DELTA values were expressed as standard deviations in log10 units. Comparison of DELTA values was made using Pearson correlation coefficients. Resistance factors were defined as the ratios of IC50 values between the resistant line and the parent line. Statistical evaluation was performed either with NCI programmes, with RS/1 software (BBN Research Systems, Cambridge, MA, USA), or with Sigmaplot (Jandel Scientific, San Rafael, CA, USA).
(§3) The effect of DACA on the growth of cultured cells was assessed by continuous drug exposure. […] Four multidrug-resistant cell lines, developed from JL and JB1 by in vitro exposure to increasing concentrations of doxorubicin (LD and B1D) or amsacrine (LA and B1A) (Finlay G.J., et al., J. Natl. Cancer Inst. 1990, 82, 662-667, Snow K., et al., Br. J. Cancer 1991, 63, 17-28) were tested.
(§4) DACA was compared with six other drugs including four topo II poisons, doxorubicin, mitozantrone, etopo-side and amsacrine. […]

B1D = experiment: as above; assay type: cell-based, human
Protocol: as §1, §2, §3, §4

LA = experiment: as above; assay type: cell-based, human
Protocol: as §1, §2, §3, §4

LD = experiment: as above; assay type: cell-based, human
Protocol: as §1, §2, §3, §4

[2] = test system: subcutaneous melanoma xenografts growing in nude mice; details: summary given by Berger et al.; cited from earlier work
[3] = test system: sublines of Jurkat leukaemia cells; experiment: Cross-resistance of Jurkat sublines selected for resistance to amsacrine; assay type: cell-based, human; details: two lines selected for resistance to amsacrine
Protocol: Two of these lines had been selected for resistance to amsacrine, and were more than 100-fold cross-resistant to amsacrine but only 2- to 4-fold cross-resistant to DACA. […] We believe that this ability to overcome resistance mechanisms accounts for the different IC50 patterns observed with the human cell line panels.
Tumour cell lines were cultured in 96-well plates. […] Primary cultures were incubated at 37°C in sealed perspex boxes containing a humidified atmosphere of 5% CO2 and 5% O2 in nitrogen for 7 days. 5-Methyl-[^3H]-thymidine (20 Ci.mmol^-1; 0.04 µCi per well), thymidine and 5-fluorodeoxyuridine (each at final concentrations of 0.5 µM) were added in medium to cultures (20 µl per well) 24 h before terminating the cultures.
1989, 81:1088-1092, where growth, as indicated by staining or thymidine incorporation, corresponded to 50% of that of the control cultures.

[4] = test system: primary human melanoma cultures; experiment: cells; details: for IC50: Homo sapiens, read-out: mean IC50
Protocol: Acridine carboxamide hydrochloride, synthesised in the Cancer Research Laboratory (Atwell G.J., et al., J.Med. Chem. 1987, 30, 664-669), and amsacrine isethionate, obtained from the Parke-Davis Division of the Warner-Lambert Company, Ann Arbor, USA, were dissolved in 50% v/v aqueous ethanol to make stock solutions of 2-5 mmol/l and stored at -20°C. Other cytotoxic drugs were available either from the NCI repository (Monks A., et al., J. Natl. Cancer Inst. 1991, 83, 757-766) or were obtained as described in Marshall E.S., et al., J. Natl. Cancer Inst. 1992, 84, 341-344 and Finlay, et al., Eur. J. Cancer din. Oncol. 1986, 22, 655-662. Cell lines were from the NCI repository except for MM-96 (Dr. R. Whitehead, Ludwig Institute, Melbourne, Australia), FME (Dr. K.M. Tveit, Norwegian Radium Hospital, Oslo, Norway) and Jurkat normal and multidrug-resistant lines (Dr. K. Snow and Dr. W. Judd, Department of Cellular and Molecular Biology, University of Auckland). Melanoma tissue was obtained from patients with pathologically confirmed metastatic and recurrent melanomas under Auckland Hospital Ethical Committee guidelines. Cells were released by digestion of tissue (at 50 mg.ml^-1) with collagenase (1 mg.ml^-1) and DNAase (50 µg.ml^-1) with continuous stirring at 37°C for 1 to 2 hours, and cultured as previously described (Marshall E.S., et al., J. Natl. Cancer Inst. 1992, 84, 341-344).
as §1, §2
DACA was also compared in a series of 12 primary melanoma cultures. Tissue was excised from human malignant melanomas and cultured using a modified 96-well assay system in which the cells were cultured on agarose and assayed for proliferation using the ^3H-thymidine incorporation assay as described in Marshall E.S., et al., J. Natl. Cancer Inst. 1992, 84, 341-344.

[5] = test system: panel of cell lines encompassing a number of tumour types; experiment: NCI cell line panel, growth inhibition by protein staining; assay type: cell-based; details: data provided by the National Cancer Institute
Protocol: as §1, §2

[6] = B1A (from B1 by exposure to amsacrine), ratio of IC50 resistant line / parent line
[7] = B1D (from B1 by exposure to doxorubicin), ratio of IC50 resistant line / parent line
[8] = LA (from L by exposure to amsacrine), ratio of IC50 resistant line / parent line
[9] = LD (from L by exposure to doxorubicin), ratio of IC50 resistant line / parent line
[10] = 100mg/kg each injection, ip, 2 doses, 0, 60 min
[11] = maximum tolerated dose of the comparison drug
[12] = human, jurkat leukaemia sublines

CN(C)CCNC(=O)c1cccc2ccc(-c3ccncc3)nc12 [(iv), N-[2-(dimethylamino)ethyl]-2-(4-pyridyl)-guinoline-8-carboxamide]
IC50 (human cell lines; continuous drug exposure over approx. 5 cell doubling times): 2000 nM | Growth delay ([1]; 50mg/kg each injection, ip, 2 doses, 0,60 min): 5 days

CC[C@@]1(O)C(=O)OCc2c1cc1n(c2=O)Cc2cc3ccccc3nc2-1 [camptothecin]
Resistance factors (B1A; [6]): 0.48 | Resistance factors (B1D; [7]): 0.86 | Resistance factors (LA; [8]): 1.0 | Resistance factors (LD; [9]): 0.97

COc1cccc2nc3cccc(C(=O)NCCN(C)C)c3nc12 [(ii), N-[2-(dimethylamino)ethyl]-9-methoxyphen-azine-1-carboxamide]
Growth delay (days) [1, 10]: 5,5 (2 expts) days

CN(Cc1cnc2nc(N)nc(N)c2n1)c1ccc(C(=O)N[C@@H](CCC(=O)O)C(=O)O)cc1 [Methotrexate]
Percentage of xenografts responding [2]: 7%

COc1cc(NS(C)(=O)=O)ccc1Nc1c2ccccc2nc2ccccc12 [amsacrine]
IC50 (human cell lines): 760 nM | cross-resistance [3]: more than 100 fold | Growth delay [1, 11]: 2 days | IC50 [4]: 128 nM | Resistance factors (B1A; [6]): 240 | Resistance factors (B1D; [7]): 8.8 | Resistance factors (LA; [8]): 130 | Resistance factors (LD; [9]): 110 | IC50 [5]: 520 nM

N.N.[Cl][Pt][Cl] [Cisplatin]
Percentage of xenografts responding [2]: 13%

Mitomycin C
Percentage of xenografts responding [2]: 32%

CC[C@]1(O)C[C@@H]2CN(CCc3c([nH]c4ccccc34)[C@@](C(=O)OC)(c3cc4c(cc3OC)N(C)[C@H]3[C@@](O)(C(=O)OC)[C@H](OC(C)=O)[C@]5(CC)C=CCN6CC[C@]43[C@@H]65)C2)C1 [Vinblastine]
Percentage of xenografts responding [2]: 10%

CC[C@]1(O)C[C@H]2CN(CCc3c([nH]c4ccccc34)[C@@](C(=O)OC)(c3cc4c(cc3OC)N(C=O)[C@H]3[C@@](O)(C(=O)OC)[C@H](OC(C)=O)[C@]5(CC)C=CCN6CC[C@]43[C@@H]65)C2)C1 [vincristine]
Resistance factors (B1A; [12]): 2.0 | Resistance factors (B1D; [12]): 10 | Resistance factors (LA; [12]): 1.5 | Resistance factors (LD; [12]): 3.6 | Percentage of xenografts responding [2]: 43%

O=C1c2c(O)ccc(O)c2C(=O)c2c(NCCNCCO)ccc(NCCNCCO)c21 [mitoxantrone]
Resistance factors (B1A; [6]): 59 | Resistance factors (B1D; [7]): 8.4 | Resistance factors (LA; [8]): 42 | Resistance factors (LD; [9]): 160

COc1cccc2c1C(=O)c1c(O)c3c(c(O)c1C2=O)C[C@@](O)(C(=O)CO)C[C@@H]3O[C@H]1C[C@H](N)[C@H](O)[C@H](C)O1 [doxorubicin]
IC50 [4]: 56 nM | Resistance factors (B1A; [12]): 11 | Resistance factors (B1D; [12]): 15 | Resistance factors (LA; [12]): 3.8 | Resistance factors (LD; [12]): 16 | IC50 [5]: 140 nM | Percentage of xenografts responding [2]: 5% (total of 5 studies)

Bleomycin
Percentage of xenografts responding [2]: 0%

CN(C)CCNC(=O)c1cccc2ccc(-c3ccccc3)nc12 [(iii), N-[2-(dimethylamino)ethyl]-2-phenylquino-line-8-carboxamide]
Growth delay ([1]; 75mg/kg each injection, ip, 2 doses, 0,60 min): 8.5 days

O=P1(N(CCCl)CCCl)NCCCO1 (centres unmarked) [cyclophosphamide, reference compound]
Growth delay [1, 11]: 6.5 days | Percentage of xenografts responding [2]: 11%

CN(C)CCNC(=O)c1cccc2c1Oc1c(Br)cccc1O2 [(v), N-[2-(dimethylamino)ethyl]-9-bromo-dibenzo-[1,4]-dioxin-1-carboxamide]
Growth delay [1, 10]: 7 days

CNC(=O)c1cccc2c(Nc3ccc(NS(C)(=O)=O)cc3OC)c3cccc(C)c3nc12 [CI-921, 4'-(9-[4-[N-methylcarboxamido]-5-methyl]-acridinylamino)-methanesulphon-m-anisidide]
IC50 (human cell lines): 100 nM

O=c1[nH]cc(F)c(=O)[nH]1 [5-fluorouracil, reference compound]
Growth delay [1, 11]: 13 days | Percentage of xenografts responding [2]: 14%

COc1cc([C@@H]2c3cc4c(cc3[C@@H](O[C@@H]3O[C@@H]5CO[C@@H](C)O[C@H]5[C@H](O)[C@H]3O)[C@H]3COC(=O)[C@H]23)OCO4)cc(OC)c1O [etoposide]
IC50 (human cell lines): 81000 nM | IC50 [4]: 2200 nM | proportions of cells killed ([4]; human, primary melanoma cultures): ≤ 90% | Resistance factors (B1A; [12]): 22 | Resistance factors (B1D; [12]): 83 | Resistance factors (LA; [12]): 11 | Resistance factors (LD; [12]): 93 | IC50 [5]: 21000 nM | Percentage of xenografts responding [2]: 0% (2 studies)
